Measured values from paper PMC7582667, “A Series of Isatin-Hydrazones with Cytotoxic Activity and CDK2 Kinase Inhibitory Activity: A Potential Type II ATP Competitive Inhibitor” (Molecules, 2020).
Several values for one entry are separate records, joined by “and”; a condition that tells them apart may be missing. Identical values can stand only once.

Legend:
[1] = tested on: MCF7 (human breast adenocarcinoma) cell lines; assay: MTT cytotoxicity assay, MCF7; type: cell-based; conditions: MCF7 cells, triplicates
Experimental: (§1) The cytotoxicity of the synthesized compounds was evaluated by MTT assay, as previously described. Two cancer cell lines, MCF7 (human breast adenocarcinoma) and A2780 (human ovary adenocarcinoma), were used in this study, which were obtained from the ATCC (Rockville, MD, USA). They were sub-cultured in RPMI-1640 media (supplemented with 10% FBS and 1% antibiotics) at 37 °C and 5% CO2. Additionally, compounds were prepared at the same medium to obtain serial dilutions (50, 25, 19,1 and 0.1 µM). The two cell lines were separately cultured in 96-well plates (3 × 10^3/well) and incubated at 37 °C overnight. The following day, before treating the cells with the compounds, each well of the T0 plate was treated with 50 μL MTT solution (2 mg/mL in phosphate buffered saline) and then incubated for 2–4 h. The media were aspirated, and the formazan crystals were solubilized by adding 150 µL DMSO. Absorbance was read on a multi-plate reader (BioRad) at […]. Optical density of the purple formazan A550 was proportional to the number of viable cells. […] The data were obtained from triplicates and analyzed using statistical software.

[2] = tested on: A2780 (human ovary adenocarcinoma) cell lines; assay: MTT cytotoxicity assay, A2780; type: cell-based; conditions: A2780 cells; for IC50: Homo sapiens, A2780, MTT assay, triplicates; for inhibitory activity against A2780 cell lines (in words): MTT assay
Experimental: as §1

[3] = target: T1, CDK2/CyclinA2 (Homo sapiens, UniProt P24941); assay: In vitro CDK2 inhibitory activity (CDK2 Assay Kit, Kinase-Glo MAX luminescence); type: biochemical; conditions: triplicate measurements, read-out: CDK2 Protein Kinase (IC50 in µM)
T1 construct: purchased #79599
Experimental: The CDK2 Assay Kit is designed to measure CDK2/CyclinA2 activity for screening and profiling applications, using Kinase-Glo® MAX as a detection reagent. The CDK2 Assay Kit comes in a convenient 96-well format, with enough purified recombinant CDK2/CyclinA2 enzyme, CDK substrate peptide, ATP and kinase assay buffer for 100 enzyme reactions. […] The CDK2/CyclinA2 activity at a single dose concentration of 10μM was performed, where the Kinase-Glo MAX luminescence kinase assay kit (Promega#V6071) was used. The compounds were diluted in 10% DMSO and 5 μL of the dilution was added to a 50 μL reaction so that the final concentration of DMSO was 1% in all of the reactions. All of the enzymatic reactions were conducted at 30 °C for 40 min. The 50 μL reaction mixture contained 40 mM Tris, pH 7.4, 10 mM MgCl2, 0.1 mg/mL BSA, 1 mM DTT, […], Kinase substrate and the enzyme (CDK2/CyclinA2). After the enzymatic reaction, 50 μL of Kinase-Glo® MAX Luminescence kinase assay solution was added to each reaction and the plates were incubated for 5 min at room temperature. Luminescence signal was measured using a Bio Tek Synergy 2 microplate reader.

Structure (SMILES)	melting point	IC50 [3]	IC50 [1]	IC50 [2]	inhibitory activity against A2780 cell lines (in words) [2]
Cc1ccccc1C=NN=C1C(=O)Nc2ccccc21 [Compound 4a, 3-((2-Methylbenzylidene)hydrazono)indolin-2-one]	198 to 199 °C		10.82 ± 0.05 µM	> 50 µM	
O=C1Nc2ccccc2C1=NN=Cc1ccccc1Br [Compound 4e, 3-((2-Bromobenzylidene)hydrazono)indolin-2-one]	233 to 234 °C		5.46 ± 0.71 µM	19 ± 2.52 µM	a little inhibitory activity
O=C1Nc2ccccc2C1=NN=Cc1cccc(Br)c1 [Compound 4f, 3-((3-Bromobenzylidene)hydrazono)indolin-2-one]	182 to 183 °C		9.07 ± 0.59 µM	25 ± 2.82 µM	a little inhibitory activity
COc1cc(C)c(C=NN=C2C(=O)Nc3ccccc32)c(C)c1 [Compound 4h, 3-((4-Methoxy-2,6-dimethylbenzylidene)hydrazono)indolin-2-one]	251 to 252 °C		25.78 ± 0.13 µM	> 50 µM	
COc1ccc(C=NN=C2C(=O)Nc3ccccc32)c(O)c1 [Compound 4i, 3-((2-Hydroxy-4-methoxybenzylidene)hydrazono)indolin-2-one]	242 to 243 °C		7.77 ± 0.008 µM	> 50 µM	
O=C1Nc2ccccc2C1=NN=Cc1c(Cl)cccc1Cl [Compound 4j, 3-((2,6-Dichlorobenzylidene)hydrazono)indolin-2-one]	286 to 287 °C	0.245 µM and 0.246 µM	1.51 ± 0.09 µM	26 ± 2.24 µM	a little inhibitory activity
O=C1Nc2ccccc2C1=NN=Cc1c(F)cccc1Cl [Compound 4k, 3-((2-Chloro-6-fluorobenzylidene)hydrazono)indolin-2-one]		0.3 µM and 0.301 µM	3.56 ± 0.31 µM	27 ± 3.2 µM	a little inhibitory activity
COc1cccc2c1C(=O)c1c(O)c3c(c(O)c1C2=O)C[C@@](O)(C(=O)CO)C[C@@H]3O[C@H]1C[C@H](N)[C@H](O)[C@H](C)O1 [Doxorubicin, reference compound]			3.1 ± 0.29 µM	0.2 ± 0.03 µM	

Further lines, with some results ahead:

melting point	IC50 [3]	Structure (SMILES)	IC50 [1]	IC50 [2]	inhibitory activity against A2780 cell lines (in words) [2]
183 to 184 °C		Cc1cccc(C=NN=C2C(=O)Nc3ccccc32)c1 [Compound 4b, 3-((3-Methylbenzylidene)hydrazono)indolin-2-one]	14.7 µM	> 50 µM	
230 to 231 °C		Cc1ccc(C=NN=C2C(=O)Nc3ccccc32)cc1 [Compound 4c, 3-((4-Methylbenzylidene)hydrazono)indolin-2-one]	32.5 ± 0.52 µM	> 50 µM	
204 to 205 °C		CSc1ccc(C=NN=C2C(=O)Nc3ccccc32)cc1 [Compound 4d, 3-((4-(Methylthio)benzylidene)hydrazono)indolin-2-one]	24 ± 2.61 µM	> 50 µM	
267 to 268 °C		O=C1Nc2ccccc2C1=NN=Cc1ccc(Br)cc1 [Compound 4g, 3-((4-Bromobenzylidene)hydrazono)indolin-2-one]	15.7 ± 0.78 µM	> 50 µM	
